Reference: paper PMC6270338, “Diterpenylquinone Hybrids: Synthesis and Assessment of Gastroprotective Mechanisms of Action in Human Cells” (Molecules, 2013)

Experiments:
[1] = Cytotoxicity, neutral red uptake assay, AGS; type: cell-based; conditions: human, AGS gastric epithelial cells, confluent monolayer, read-out: IC50 ± SD, cytotoxicity AGS
Description: (§1) Human lung fibroblasts MRC-5 (ATCC CCL-171) were grown in minimum essential Eagle medium (MEM) with Earles’s salts and 2 mM L-glutamine (Sigma-Aldrich Co.). Human epithelial gastric cells AGS (ATCC CRL-1739) were grown in Ham F-12 medium containing 1 mM L-glutamine. Both media were supplemented with 1.5 g/L sodium bicarbonate (Sigma-Aldrich Co.), 10% heat-inactivated fetal bovine serum (FBS), 100 IU/mL penicillin and 100 µg/mL streptomycin.Both cell lines were grown as monolayers in a humidified incubator with 5% CO2 in air at 37 °C. Culture media, antibiotics and FBS were obtained from Invitrogen Corp.
(§2) Cytotoxicity values were required as a reference to determine the working concentrations in the subsequent experiments. Briefly, confluent cultures of MRC-5 and AGS cells were treated during 24 h with medium containing the compounds at concentrations ranging from 0 up to 1,000 µM. The products were first dissolved in DMSO (1% final concentration) and then in the corresponding culture medium supplemented with 2% FBS. Untreated cells were used as controls. Cell viability was determined at the end of the incubation by means of the neutral red uptake (NRU) assay. Lansoprazole (Sigma-Aldrich Co., min. 98% by TLC) was used as reference compound.

[2] = Cytotoxicity, neutral red uptake assay, MRC-5; type: cell-based; conditions: human, MRC-5 lung fibroblasts, confluent monolayer, confluent MRC-5, 24 h, read-out: IC50 ± SD, cytotoxicity MRC-5
Description: as §1, §2

[3] = test system: HCl-EtOH-induced gastric lesions; set-up: method as in PMID 21996716; conditions: mice, orally, single dose of 5 mg/kg; cited from earlier work
[4] = test system: human erythrocyte membranes; experiment: Inhibition of lipoperoxidation in erythrocyte membranes; type: biochemical
AGS cells [5] = experiment: Cellular reduced glutathione (GSH) content of AGS cells; type: cell-based, human; conditions: 4 h; for GSH: post-confluent AGS, control 13.6 ± 0.7
Description: Untreated cells were used as controls. […] After incubation, the GSH content was determined using a colorimetric kit (BioAssays Systems, Hayward, CA, USA). Results are expressed as nanomol of soluble reduced sulfhydryls/10^6 cells.

AGS cells [6] = experiment: Prostaglandin E2 (PGE2) content of AGS cells; type: cell-based, human; conditions: 1 h; for PGE2: post-confluent AGS, control 52 ± 5
Description: One day after confluence, AGS cells were treated for 1 h with the compounds at 1/2 and 1/4 of the respective IC50 values. A control with medium only was included. Indomethacin (100 μM) was used as standard inhibitor of prostaglandin synthesis (Sigma-Aldrich Co., min. 99% by TLC). After incubation, PGE2 content was determined by means of a specific enzyme immunoassay kit (R & D Systems KGE004B, Minneapolis, MN, USA) and values were calculated according to the manufacturer instructions. Results are expressed as pg/well.

[7] = test system: human erythrocyte membranes; experiment: Inhibition of lipoperoxidation in erythrocyte membranes; type: biochemical; conditions: at 100 µg/mL
Description: The inhibition of lipid peroxidation was determined using human erythrocyte membranes. The compounds were tested at 100 µg/mL.

Compound: C=C1CCC2[C@](C)(CCC[C@]2(C)C(=O)OC)[C@H]1CC[C@@H](C)CC(=O)OC1=C(CC=C(C)C)C(=O)c2ccccc2C1=O (stereo partly drawn) [Compound 8, Lapachoyl junicedrate methyl ester]
- IC50 at 24 h [1]: > 1000 µM
- IC50 at 24 h [2]: > 1000 µM
- gastroprotective effect in vivo [3]: active
- IC50, inhibition of the lipoperoxidation [4]: IC50 81.4 ± 11.0 µg/mL
- activation at 125 µM (AGS cells [5]; Homo sapiens, AGS, 125 µM, read-out: increase of GSH content compared to untreated controls): 19%
- activation at 250 µM (AGS cells [5]; Homo sapiens, AGS, 250 µM, read-out: increase of GSH content compared to untreated controls): 24%
- GSH (AGS cells [5]; 125 µM): * 16.2 ± 0.6 nmol/10^6 cells
- GSH (AGS cells [5]; 250 µM): * 16.8 ± 0.9 nmol/10^6 cells
- fold induction at 250 µM (AGS cells [6]; Homo sapiens, AGS, 250 µM, read-out: increase in PGE2 content): 5.2
- fold induction at 500 µM (AGS cells [6]; Homo sapiens, AGS, 500 µM, read-out: increase in PGE2 content): 15.2
- PGE2 (AGS cells [6]; 250 µM): 272 ± 30 pg/mL
- PGE2 (AGS cells [6]; 500 µM): 787 ± 56 pg/mL

Compound: C=C1CCC2[C@](C)(CCC[C@]2(C)C(=O)O)[C@H]1CC[C@@H](C)CC(=O)OC1=C(CCC(C)C)C(=O)c2ccccc2C1=O (stereo partly drawn) [Compound 9, Dihydroprenyl lapachol junicedrate]
- IC50 at 24 h [1]: 49 ± 10 µM
- IC50 at 24 h [2]: 449 ± 27 µM
- gastroprotective effect in vivo [3]: significant activity
- IC50, inhibition of the lipoperoxidation [4]: IC50 40.1 ± 5.3 µg/mL
- activation at 6 µM (AGS cells [5]; Homo sapiens, AGS, 6 µM, read-out: increase of GSH content compared to untreated controls): 15%
- activation at 12 µM (AGS cells [5]; Homo sapiens, AGS, 12 µM, read-out: increase of GSH content compared to untreated controls): 16%
- GSH (AGS cells [5]; 6 µM): * 15.6 ± 0.6 nmol/10^6 cells
- GSH (AGS cells [5]; 12 µM): * 15.8 ± 0.6 nmol/10^6 cells
- fold induction at 12.5 µM (AGS cells [6]; Homo sapiens, AGS, 12.5 µM, read-out: increase in PGE2 content): 5.9
- PGE2 (AGS cells [6]; 12.5 µM): 309 ± 29 pg/mL

Compound: C=C1CCC2[C@](C)(CCC[C@]2(C)C(=O)OC)[C@H]1CC[C@@H](C)CC(=O)OC1=C(CCC(C)C)C(=O)c2ccccc2C1=O (stereo partly drawn) [Compound 10, Dihydroprenyl lapachoyl junicedrate methyl ester]
- IC50 at 24 h [1]: 659 ± 42 µM
- IC50 at 24 h [2]: > 1000 µM
- gastroprotective effect in vivo [3]: significant activity
- IC50, inhibition of the lipoperoxidation [4]: IC50 99.4 ± 9.1 µg/mL
- GSH (AGS cells [5]; 83 µM): 13.4 ± 0.7 nmol/10^6 cells
- GSH (AGS cells [5]; 165 µM): 13.0 ± 0.7 nmol/10^6 cells
- fold induction at 162 µM (AGS cells [6]; Homo sapiens, AGS, 162 µM, read-out: increase in PGE2 content): 5.9
- fold induction at 323 µM (AGS cells [6]; Homo sapiens, AGS, 323 µM, read-out: increase in PGE2 content): 8.9
- PGE2 (AGS cells [6]; 162 µM): 306 ± 32 pg/mL
- PGE2 (AGS cells [6]; 323 µM): 465 ± 39 pg/mL

Compound: COC(=O)[C@@]1(C)CCC[C@]2(C)C(CC[C@@H](C)CC(=O)OC3=C(CC=C(C)C)C(=O)c4ccccc4C3=O)=C(C)CCC12 (stereo partly drawn) [Compound 20, Lapachoyl Δ8(9) junicedrate methyl ester]
- IC50 at 24 h [1]: 321 ± 24 µM
- IC50 at 24 h [2]: 483 ± 31 µM
- gastroprotective effect in vivo [3]: active
- IC50, inhibition of the lipoperoxidation [4]: IC50 58.1 ± 4.1 µg/mL
- activation at 40 µM (AGS cells [5]; Homo sapiens, AGS, 40 µM, read-out: increase of GSH content compared to untreated controls): 19%
- activation at 80 µM (AGS cells [5]; Homo sapiens, AGS, 80 µM, read-out: increase of GSH content compared to untreated controls): 13%
- GSH (AGS cells [5]; 40 µM): * 16.2 ± 1.0 nmol/10^6 cells
- GSH (AGS cells [5]; 80 µM): * 15.4 ± 1.3 nmol/10^6 cells

Compound: COC(=O)[C@@]1(C)CCC[C@]2(C)C(CC[C@@H](C)CC(=O)OC3=C(CCC(C)C)C(=O)c4ccccc4C3=O)=C(C)CCC12 (stereo partly drawn) [Compound 22, Dihydroprenyl lapachoyl Δ8(9) junicedrate methyl ester]
- IC50 at 24 h [1]: 340 ± 20 µM
- IC50 at 24 h [2]: 848 ± 51 µM
- gastroprotective effect in vivo [3]: significant activity
- GSH (AGS cells [5]; 43 µM): 13.6 ± 0.9 nmol/10^6 cells
- GSH (AGS cells [5]; 85 µM): 14.2 ± 0.6 nmol/10^6 cells
- fold induction at 170 µM (AGS cells [6]; Homo sapiens, AGS, 170 µM, read-out: increase in PGE2 content): 2.2
- PGE2 (AGS cells [6]; 170 µM): 114 ± 11 pg/mL
- % Inhibition of the lipoperoxidation [7]: 46%
